Data reported in ChEMBL document CHEMBL1201862, “PubChem BioAssay data set” (2004).
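Values below derive from 48-hour exposures of cells grown in 96-well plates, with endpoints linearly interpolated between the two concentrations bracketing the appropriate inhibition level. Abbreviation: GI50, concentration required for 50% inhibition of growth.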 The source made the active and inactive calls. Cut-off read from the data, not from the text of the source: active = GI50 up to about 1.1 µM and inactive = higher.

Assays:
Experiment in all cases: DTP human tumour cell line panel, 48 h
[1] = system: TK-10
[2] = system: SF-539
[3] = system: SN12C
[4] = system: HCC 2998
[5] = system: CCRF-CEM
[6] = system: SK-MEL-2
[7] = system: SF-295
[8] = system: NCI-H226
[9] = system: MOLT-4
[10] = system: T47D
[11] = system: OVCAR-5
[12] = system: NCI-H460
[13] = system: MDA-MB-231
[14] = system: SW-620
[15] = system: Hs-578T
[16] = system: OVCAR-3
[17] = system: RXF 393
[18] = system: NCI-H522
[19] = system: SK-OV-3
[20] = system: MDA-N

Measured: GI50

CCSC(=O)/C=C1\CN(C(=O)OC(C)(C)C)C1C(=O)OC(C)(C)C (stereo not given)
inactive: [1] 2.59 µM | [2] 3.03 µM | [3] 1.86 µM | [4] 5.38 µM | [5] 1.27 µM | [6] 6.59 µM | [7] 12.1 µM | [8] 12.7 µM | [9] 1.71 µM | [10] 4.34 µM | [11] 6.24 µM | [12] 7.14 µM | [13] 4.29 µM | [14] 2.07 µM | [15] 4.17 µM | [16] 2.42 µM | [17] 1.91 µM | [18] 2.49 µM | [19] 13.8 µM

CCOC(=O)C(C)(Cc1ccc(O)cn1)NC(=O)c1ccccc1 (stereo not given)
inactive: [1] > 100 µM | [2] > 100 µM | [4] > 100 µM | [5] > 100 µM | [6] > 100 µM | [7] > 100 µM | [8] > 100 µM | [9] > 100 µM | [11] > 100 µM | [20] > 100 µM | [12] > 100 µM | [13] > 100 µM | [14] > 100 µM | [15] > 100 µM | [16] > 100 µM | [17] > 100 µM | [18] > 100 µM | [19] > 100 µM

O=C(CSc1nc2ccc(I)cc2c(=O)n1Cc1ccccc1)NN1C(=O)CCC1=O
inactive: [1] 84.5 µM | [2] 61.4 µM | [3] 35.7 µM | [4] 77.4 µM | [5] 34.5 µM | [6] 47 µM | [7] 37.9 µM | [8] 27.3 µM | [9] 42.1 µM | [10] 40 µM | [11] > 100 µM | [20] 83.4 µM | [12] 63.8 µM | [13] 32.4 µM | [14] 75.2 µM | [16] 23.5 µM | [17] 25.5 µM | [18] 20.4 µM | [19] 52 µM

O=C(/C=C\c1ccccc1)N1CCc2ccccc2C1
inactive: [1] > 100 µM | [2] 49.8 µM | [4] > 100 µM | [5] 29 µM | [6] 31.3 µM | [7] 34.9 µM | [8] > 100 µM | [10] 20.1 µM | [12] 60.3 µM | [13] > 100 µM | [14] 63.5 µM | [15] 60.7 µM | [17] 44.4 µM | [19] > 100 µM

O=C1CCCCC/C1=C\c1cccc(F)c1
inactive: [1] 62.5 µM | [2] > 100 µM | [3] > 100 µM | [4] 59.8 µM | [5] 24.3 µM | [6] > 100 µM | [7] > 100 µM | [9] 24.8 µM | [10] > 100 µM | [11] > 100 µM | [20] 62.5 µM | [12] 54.5 µM | [13] > 100 µM | [14] 83.8 µM | [16] > 100 µM | [17] > 100 µM | [19] > 100 µM

COc1ccc(-c2c(N)n(-c3nc4ccccc4s3)c(=O)c3cc([N+](=O)[O-])ccc23)cc1
inactive: [1] 38.1 µM | [2] 5.83 µM | [5] 4.44 µM | [6] 25.4 µM | [7] 22.3 µM | [8] 37.3 µM | [9] 3.18 µM | [11] 22.2 µM | [20] 70.5 µM | [12] 3.69 µM | [13] 16.9 µM | [14] 19.7 µM | [15] 13.7 µM | [16] 17 µM | [17] 14.2 µM | [18] 10.7 µM | [19] 15.3 µM

[N-]=[N+]=Nc1c(Cc2ccccc2)c(=O)oc2ccccc12
inactive: [1] 28.2 µM | [2] > 10 µM | [3] > 10 µM | [4] 26 µM | [5] 12.7 µM | [6] 28.1 µM | [7] 33.4 µM | [9] 5.06 µM | [10] 56.8 µM | [11] 61.9 µM | [12] 18.1 µM | [13] 39.3 µM | [14] 14.8 µM | [15] 19.1 µM | [16] 49.5 µM | [17] 16.7 µM | [19] 32.1 µM

CN(C)c1ccc(/C=C2\C[N+](C)(C)C/C(=C\c3ccc(N(C)C)cc3)C2=O)cc1
inactive: [1] 78.7 µM | [2] 21.1 µM | [3] 20.5 µM | [4] 8.18 µM | [5] 9.53 µM | [6] 14.9 µM | [7] 31.6 µM | [8] 30.5 µM | [9] 13.6 µM | [10] 16.5 µM | [11] 38.9 µM | [12] 13.6 µM | [13] 17.9 µM | [14] 15.3 µM | [15] 50 µM | [16] 5.9 µM | [17] > 48.2 µM | [18] 9.66 µM | [19] 26.7 µM
